Kd data for one compound are collected here from PMC6737077, “DFMD: Fast and Effective DelPhiForce Steered Molecular Dynamics Approach to Model Ligand Approach Toward a Receptor: Application to Spermine Synthase Enzyme” (Frontiers in Molecular Biosciences, 2019).

Substitutions are numbered along the chain they refer to.

Common to all, as to test: intrinsic protein fluorescence titration (ex […] nm, em […]-345 nm)
Format in all cases: binding

Experiment [1] concerns the target T1, human spermine synthase (SpmSyn) (Homo sapiens, UniProt P52788, G56S).
T1 construct: gene SMS; wild-type human SpmSyn expression construct of Wu et al. 2008; expressed in E. coli Rosetta 2, purified; homo-dimer
T1 sequence (P52788 2-366 G56S): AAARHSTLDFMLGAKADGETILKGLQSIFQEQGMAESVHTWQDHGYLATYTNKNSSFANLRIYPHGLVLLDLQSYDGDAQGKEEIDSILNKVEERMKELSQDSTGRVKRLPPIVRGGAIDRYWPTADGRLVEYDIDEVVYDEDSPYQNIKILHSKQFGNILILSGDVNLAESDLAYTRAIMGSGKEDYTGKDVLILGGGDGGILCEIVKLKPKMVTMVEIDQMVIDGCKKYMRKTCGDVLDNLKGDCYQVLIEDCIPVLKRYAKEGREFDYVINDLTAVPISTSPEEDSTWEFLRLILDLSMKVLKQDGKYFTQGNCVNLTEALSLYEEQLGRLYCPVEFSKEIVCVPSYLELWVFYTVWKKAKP

Experiment [2] addresses T2, human spermine synthase (SpmSyn) (Homo sapiens, UniProt P52788).
T2 construct: gene SMS; wild-type human SpmSyn expression construct of Wu et al. 2008; expressed in E. coli Rosetta 2, purified; homo-dimer
T2 sequence (P52788 2-366): T1 sequence (P52788 2-366 G56S) with S55G

For experiment [3], the target named is T3, human spermine synthase (SpmSyn) (Homo sapiens, UniProt P52788, D201A).
T3 construct: gene SMS; wild-type human SpmSyn expression construct of Wu et al. 2008; expressed in E. coli Rosetta 2, purified; homo-dimer
T3 sequence (P52788 2-366 D201A): T1 sequence (P52788 2-366 G56S) with S55G, D200A

As for `C[S+](CC[C@H](N)C(=O)O)C[C@H]1O[C@@H](n2cnc3c(N)ncnc32)[C@H](O)[C@@H]1O` (stereo partly drawn) [AdoMet], the Kd came out at 410 ± 57 µM in experiment [1], 272 ± 24 µM in experiment [2] and 1020 ± 69 µM in experiment [3].

The term Kd denotes the free concentration of one partner at which half of the binding sites on the other are occupied at equilibrium, for simple one-to-one binding. Read a low Kd as a tighter complex.
